In one assay the target is T1, BRAF V600E (Homo sapiens, UniProt P15056, V600E).
T1 construct: expressed in transfected cells
The experiment in a line: Cellular assay of target protein degradation, T-Rex 293 cells stably transfected with HA-BRAF_V600E (HA immunofluorescence, high content imaging). It is filed as cell-based. The conditions noted are these: T-Rex 293 HA-BRAF V600E; for DC50: half maximal degradation, read-out: BRaf V600E DC50; for Dmax: maximum degradation observed. In a few lines:
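Read-out is anti-HA immunofluorescence quantified by high-content imaging, giving half-maximal degradation concentration (DC50) and maximum degradation (Dmax, percent of control). Cells expressed the construct under 1 ng/mL doxycycline and received compound (1 μM to 0.1 nM final, 0.1% DMSO) for 24 h at 37 °C.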

A further assay addresses T2, BRAF G466V (Homo sapiens, UniProt P15056, G466V).
T2 construct: expressed in transfected cells
The experiment in a line: Cellular assay of target protein degradation, T-Rex 293 cells stably transfected with HA-BRAF G466V (HA immunofluorescence, high content imaging). Format: cell-based. The settings on record: T-Rex 293 HA-BRAF G466V; for DC50: half maximal degradation, read-out: BRaf G466V DC50; for Dmax: maximum degradation observed. The procedure, abridged:
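First, stably transfected T-Rex 293 cells were plated with 0.75 ng/mL doxycycline and grown for 24 hours. Next, compound (final 30 nM to 3 pM, 0.1% DMSO) was added for another 24 hours at 37° C. Finally, cells were fixed, stained for HA and imaged.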

T1 sequence (P15056 whole entry V600E): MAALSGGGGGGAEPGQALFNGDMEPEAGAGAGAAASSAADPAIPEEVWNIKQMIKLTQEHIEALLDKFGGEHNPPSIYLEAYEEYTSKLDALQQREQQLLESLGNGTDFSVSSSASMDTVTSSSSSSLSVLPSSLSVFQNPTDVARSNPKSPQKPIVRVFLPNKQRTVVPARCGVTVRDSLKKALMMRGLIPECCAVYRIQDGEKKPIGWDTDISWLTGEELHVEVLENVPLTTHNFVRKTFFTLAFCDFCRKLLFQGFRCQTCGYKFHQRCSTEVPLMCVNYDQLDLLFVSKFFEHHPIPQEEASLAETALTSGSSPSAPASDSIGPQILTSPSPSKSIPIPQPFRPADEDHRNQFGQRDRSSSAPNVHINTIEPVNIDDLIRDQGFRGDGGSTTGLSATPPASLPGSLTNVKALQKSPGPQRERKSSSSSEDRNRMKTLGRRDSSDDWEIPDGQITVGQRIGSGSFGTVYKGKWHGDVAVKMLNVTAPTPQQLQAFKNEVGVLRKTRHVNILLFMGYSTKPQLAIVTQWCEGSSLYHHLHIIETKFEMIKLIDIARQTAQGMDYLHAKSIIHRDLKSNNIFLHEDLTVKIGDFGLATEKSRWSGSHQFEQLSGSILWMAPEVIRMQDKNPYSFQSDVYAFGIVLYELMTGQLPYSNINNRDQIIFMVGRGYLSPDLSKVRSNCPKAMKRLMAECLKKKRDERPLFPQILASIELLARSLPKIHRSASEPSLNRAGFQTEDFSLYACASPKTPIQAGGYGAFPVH
T2 sequence (P15056 whole entry G466V): as the sequence (P15056 whole entry V600E) above, with G466V, E600V counted along it

Regarding `O=C1CCC(N2Cc3cc(N4CCCN(CC5CCN(c6ccc(-c7cnc8[nH]cc(C(=O)c9c(F)ccc(NS(=O)(=O)N%10CC[C@@H](F)C%10)c9F)c8c7)cc6)CC5)CC4)ccc3C2=O)C(=O)N1` (stereo partly drawn) [Compound 324, (3R)-N-[3-(5-{4-[4-({4-[2-(2,6-dioxopiperidin-3-yl)-1-oxo-2,3-dihyrdo-1H-isoindol-5-yl]-1,4-diazepan-1-yl}methyl)piperidin-1-yl]phenyl}-1H-pyrrolo[2,3-b]pyridine-3-carbonyl)-2,4-difluorophenyl]-3-fluoropyrrolidine-1-sulfonamide], the DC50 (usually the midpoint of the concentration-degradation curve) at BRAF V600E was 5 to 50 nM; on BRAF G466V it was 1 to 10 nM. The Dmax (commonly the greatest extent of degradation seen) was less than 35% at BRAF V600E and greater than 70% at BRAF G466V.

With `O=C1CCC(N2Cc3cc(CCCCN4CCN(c5ccc(-c6cnc7[nH]cc(C(=O)c8c(F)ccc(NS(=O)(=O)N9CC[C@@H](F)C9)c8F)c7c6)cc5)CC4)ccc3C2=O)C(=O)N1` (stereo partly drawn) [Compound 325, (3R)-N-(3-{5-[4-(4-{4-[2-(2,6-dioxopiperidin-3-yl)-1-oxo-2,3-dihydro-1H-isoindol-5-yl]butyl}piperazin-1-yl)phenyl]-1H-pyrrolo[2,3-b]pyridine-3-carbonyl}-2,4-difluorophenyl)-3-fluoropyrrolidine-1-sulfonamide], on BRAF V600E, the DC50 was in the range of 5 to 50 nM and the Dmax is 35 to 70%. Besides, on BRAF G466V, the DC50 was 1 to 10 nM and the Dmax was greater than 70%.

On to `O=C1CCC(N2Cc3cc(C4CCN(C5CCN(c6ccc(-c7cnc8[nH]cc(C(=O)c9c(F)ccc(NS(=O)(=O)N%10CC[C@@H](F)C%10)c9F)c8c7)cc6)CC5)CC4)ccc3C2=O)C(=O)N1` (stereo partly drawn) [Compound 326, (3R)-N-{3-[5-(4-{4-[2-(2,6-dioxopiperidin-3-yl)-1-oxo-2,3-dihydro-1H-isoindol-5-yl]-[1,4′-bipiperidin]-1′-yl}phenyl)-1H-pyrrolo[2,3-b]pyridine-3-carbonyl]-2,4-difluorophenyl}-3-fluoropyrrolidine-1-sulfonamide], for which, at BRAF V600E, the DC50 lay in the range of 5 to 50 nM and the Dmax is 35 to 70%. For the same compound, on BRAF G466V, the DC50 was less than 1 nM and the Dmax is greater than 70%.

Turning to `O=C1CC[C@H](N2Cc3cc(CC[C@@H](O)CN4CC5(C4)CN(c4ccc(-c6cnc7[nH]cc(C(=O)c8c(F)ccc(NS(=O)(=O)N9CC[C@@H](F)C9)c8F)c7c6)cc4)C5)ccc3C2=O)C(=O)N1` [Compound 327, (3R)-N-{3-[5-(4-{6-[(2R)-4-{2-[(3)S-2,6-dioxopiperidin-3-yl]-1-oxo-2,3-dihydro-1H-isoindol-5-yl}-2-hydroxybutyl]-2,6-diazaspiro[3.3]heptan-2-yl}phenyl)-1H-pyrrolo[2,3-b]pyridine-3-carbonyl]-2,4-difluorophenyl}-3-fluoropyrrolidine-1-sulfonamide], at BRAF V600E, the DC50 was 5 to 50 nM and the Dmax lay in the range of 35 to 70%. Also, on BRAF G466V, the DC50 fell in the range of 1 to 10 nM and the Dmax is greater than 70%.

For `O=C1CC[C@@H](N2Cc3cc(CC[C@@H](O)CN4CC5(C4)CN(c4ccc(-c6cnc7[nH]cc(C(=O)c8c(F)ccc(NS(=O)(=O)N9CC[C@@H](F)C9)c8F)c7c6)cc4)C5)ccc3C2=O)C(=O)N1` [Compound 328, (3R)-N-{3-[5-(4-{6-[(2R)-4-{2-[(3R)-2,6-dioxopiperidin-3-yl]-1-oxo-2,3-dihydro-1H-isoindol-5-yl}-2-hydroxybutyl]-2,6-diazaspiro[3.3]heptan-2-yl}phenyl)-1H-pyrrolo[2,3-b]pyridine-3-carbonyl]-2,4-difluorophenyl}-3-fluoropyrrolidine-1-sulfonamide], the DC50 fell in the range of 5 to 50 nM at BRAF V600E and 1 to 10 nM on BRAF G466V. For the same compound, the results for the Dmax at BRAF V600E and on BRAF G466V were 35 to 70% and greater than 70%, respectively.

With `O=C1CCC(N2Cc3cc(N4CCC(CN5CC[C@H]6[C@@H](C5)CN6c5ccc(-c6cnc7[nH]cc(C(=O)c8c(F)ccc(NS(=O)(=O)N9CC[C@@H](F)C9)c8F)c7c6)cc5)CC4)ccc3C2=O)C(=O)N1` (stereo partly drawn) [Compound 329, (3R)-N-[3-(5-{4-[(1S,6S)-3-({1-[2-(2,6-dioxopiperidin-3-yl)-1-oxo-2,3-dihydro-1H-isoindol-5-yl]piperidin-4-yl}methyl)-3,7-diazabicyclo[4.2.0]octan-7-yl]phenyl}-1H-pyrrolo[2,3-b]pyridine-3-carbonyl)-2,4-difluorophenyl]-3-fluoropyrrolidine-1-sulfonamide], on BRAF V600E, the DC50 was in the range of 5 to 50 nM and the Dmax lay within 35 to 70%. On BRAF G466V, the DC50 was in the range of 1 to 10 nM and the greatest degradation seen (Dmax) is greater than 70%.

For `O=C1CCC(N2Cc3cc(N4CCC(CN5CC(C6CN(c7ccc(-c8cnc9[nH]cc(C(=O)c%10c(F)ccc(NS(=O)(=O)N%11CC[C@@H](F)C%11)c%10F)c9c8)cc7)C6)C5)CC4)ccc3C2=O)C(=O)N1` (stereo partly drawn) [Compound 330, (3R)-N-[3-(5-{4-[1′-({1-[2-(2,6-dioxopiperidin-3-yl)-1-oxo-2,3-dihydro-1H-isoindol-5-yl]piperidin-4-yl}methyl)-[3,3′-biazetidin]-1-yl]phenyl}-1H-pyrrolo[2,3-b]pyridine-3-carbonyl)-2,4-difluorophenyl]-3-fluoropyrrolidine-1-sulfonamide], on BRAF V600E, the 50% degradation concentration (DC50) is 5 to 50 nM and the Dmax lay within 35 to 70%. Further, on BRAF G466V, the DC50 is 1 to 10 nM and the Dmax is greater than 70%.

`COc1cc(OCCCCN2CCN(c3ccc(-c4cnc5[nH]cc(C(=O)c6c(F)ccc(NS(=O)(=O)N7CC[C@@H](F)C7)c6F)c5c4)cc3)CC2)cc2c1C(=O)N(C1CCC(=O)NC1=O)C2` (stereo partly drawn) [Compound 331, (3R)-N-[3-(5-{4-[4-(4-{[2-(2,6-dioxopiperidin-3-yl)-7-methoxy-1-oxo-2,3-dihydro-1H-isoindol-5-yl]oxy}butyl)piperazin-1-yl]phenyl}-1H-pyrrolo[2,3-b]pyridine-3-carbonyl)-2,4-difluorophenyl]-3-fluoropyrrolidine-1-sulfonamide]: at BRAF V600E, the DC50 fell in the range of 5 to 50 nM and the Dmax was in the range of 35 to 70%. On BRAF G466V, the DC50 was 1 to 10 nM and the Dmax was in the range of 35 to 70%.

On to `O=C1CCC(N2Cc3cc(CCCCN4CCC(c5ccc(-c6cnc7[nH]cc(C(=O)c8c(F)ccc(NS(=O)(=O)N9CC[C@@H](F)C9)c8F)c7c6)cc5)CC4)ccc3C2=O)C(=O)N1` (stereo partly drawn) [Compound 332, (3R)-N-(3-{5-[4-(1-{4-[2-(2,6-dioxopiperidin-3-yl)-1-oxo-2,3-dihydro-1H-isoindol-5-yl]butyl}piperidin-4-yl)phenyl]-1H-pyrrolo[2,3-b]pyridine-3-carbonyl}-2,4-difluorophenyl)-3-fluoropyrrolidine-1-sulfonamide], for which, at BRAF V600E, the DC50 is 5 to 50 nM and the Dmax lay within 35 to 70%. Besides, on BRAF G466V, the DC50 was 1 to 10 nM and the Dmax is greater than 70%.

Regarding `O=C1CCC(N2Cc3cc(N4CCN(CC5CCN(c6ccc(-c7cnc8[nH]cc(C(=O)c9c(F)ccc(NS(=O)(=O)N%10CC[C@@H](F)C%10)c9F)c8c7)cc6)CC5)CC(F)(F)C4)ccc3C2=O)C(=O)N1` (stereo partly drawn) [Compound 333, (3R)-N-[3-(5-{4-[4-({4-[2-(2,6-dioxopiperidin-3-yl)-1-oxo-2,3-dihydro-1H-isoindol-5-yl]-6,6-difluoro-1,4-diazepan-1-yl}methyl)piperidin-1-yl]phenyl}-1H-pyrrolo[2,3-b]pyridine-3-carbonyl)-2,4-difluorophenyl]-3-fluoropyrrolidine-1-sulfonamide], at BRAF V600E, the DC50 was greater than 500 nM. Besides, at BRAF G466V, the DC50 lay within 1 to 10 nM and the Dmax is less than 35%.

On to `O=C1CCC(N2Cc3cc(N4CC(CN5CCC(C6(c7ncc(-c8cnc9[nH]cc(C(=O)c%10c(F)ccc(NS(=O)(=O)N%11CC[C@@H](F)C%11)c%10F)c9c8)cn7)CC6)CC5)C4)ccc3C2=O)C(=O)N1` (stereo partly drawn) [Compound 334], for which, on BRAF V600E, the DC50 is 50 to 500 nM and the Dmax is 35 to 70%. Moreover, at BRAF G466V, the DC50 was 1 to 10 nM and the greatest degradation seen (Dmax) is greater than 70%.

As to `O=C1CC[C@H](N2Cc3cc(N4CC[C@@H](COc5ccc(-c6cnc7[nH]cc(C(=O)c8c(F)ccc(NS(=O)(=O)N9CC[C@@H](F)C9)c8F)c7c6)cc5)C4)ccc3C2=O)C(=O)N1` [Compound 335, (3R)-N-{3-[5-(4-{[(3R)-1-{2-[(3S)-2,6-dioxopiperidin-3-yl]-1-oxo-2,3-dihydro-1H-isoindol-5-yl}pyrrolidin-3-yl]methoxy}phenyl)-1H-pyrrolo[2,3-b]pyridine-3-carbonyl]-2,4-difluorophenyl}-3-fluoropyrrolidine-1-sulfonamide], the results for the DC50 at BRAF V600E and on BRAF G466V were greater than 500 nM and greater than 30 nM, respectively.

For the compound `O=C1CC[C@@H](N2Cc3cc(N4CC[C@@H](COc5ccc(-c6cnc7[nH]cc(C(=O)c8c(F)ccc(NS(=O)(=O)N9CC[C@@H](F)C9)c8F)c7c6)cc5)C4)ccc3C2=O)C(=O)N1` [Compound 336, (3R)-N-{3-[5-(4-{[(3R)-1-{2-[(3R)-2,6-dioxopiperidin-3-yl]-1-oxo-2,3-dihydro-1H-isoindol-5-yl}pyrrolidin-3-yl]methoxy}phenyl)-1H-pyrrolo[2,3-b]pyridine-3-carbonyl]-2,4-difluorophenyl}-3-fluoropyrrolidine-1-sulfonamide], at BRAF V600E, the DC50 is greater than 500 nM and the Dmax is 35 to 70%. Also, the DC50 on BRAF G466V was greater than 30 nM.

These data come from patent US12180193B2, “Accelerating fibrosarcoma protein degrading compounds and associated methods of use” (Arvinas Operations, Inc., priority 2020, dated 2024).
